Results: patent US11471502B2, “Neuroprotective peptide” (UNIVERSITY COLLEGE CARDIFF C[…], priority 2017, dated 2022)
Entries after “also recorded” stand apart in the source; their conditions may differ.

Assays:
[1] = tested on: ERK1/MAPK3; experiment: Single in vivo administration in ERK1 KO versus ERK1 WT mice; design: species or system mouse
Method: a) RB5 peptide selectively promoted activation of ERK2. Acute striatal slices either pre-treated with Scramble (SCR) or RB5 peptide (50 μM) and then stimulated 10 minutes with glutamate (GLU) (100 μM) or vehicle were analysed in Western blot (left panel) and probed with anti phospho ERK antibodies (p44^ERK1 and p42^ERK2) and anti ERK1/2 antibody. GAPDH was used as loading control. […] No changes were detected in the total ERK1 and ERK2 levels. GAPDH was used as loading control. […] Mice injected with a single dose of CPP-SCR or CPP-RB5 peptides (20 mg/kg, i.p.) were rapidly perfused 1 h later and brains were dissected and further analysed for IHC and immunofluorescence. Representative photomicrographs of pERK1/2, pMSK, pAch3, pELK1 and c-Fos expression in the striatum. […] Two-way ANOVA Bonferroni post hoc comparison: one black star, p<0.05, two black stars, p<0.01, one white star, p<0.001. p) Dose response curve of RB5 peptide for ERK activation. 200 μm thick striatal slices were freshly prepared from 2-month old mice and transferred into a perfusion chamber for 1 h at 32° C. Slices were pre-treated with different doses of RB5 or scrambled control. After 1 h, slices for each dose was fixed in PFA 4% for 15 min. 18 μm cryo-sections were processed for immunohistochemistry with anti-phospho p44/p42 MAP kinase. Neuronal quantification was performed with ImageJ software by counting the number of phospho-ERK positive cells in each slice. The level of activation is expressed on the Y-axis as arbitrary units (AU). Doses are reported in a logarithmic scale (Log 10) on the X-axis. The EC50 was calculated using GraphPad Prism software.
ERK1 male KO and littermate controls, were generated as described previously and were used for ex vivo analysis.
Mice pre-treated with a single dose of CPP-RB5 or CPP-SCR (20 mg/kg) were perfused 1 h later and brain slices were processed for nuclear and cytoplasmic markers.

[2] = tested on: Tg2576 mice; experiment: Tg2576 mouse model of Alzheimer's Disease, neuroprotection; assay type: in vivo; conditions: 20 mg/kg i.p., 7 days
Method: Two-way ANOVA Bonferroni post-hoc comparison **p<0.01***p<0.001.
The genetic model of Alzheimer's Disease Tg2576 and their WT controls have been treated for 7 days with RB5/scramble peptide (20 mg/kg, i.p).

[3] = RB5 brain levels by HPLC-MS/MS after single i.p. administration; assay type: in vivo, mouse; conditions: single i.p. 20 mg/kg, mass spectrometry
Method: Bioavailability of RB5 in the mouse brain was determined at different time intervals (1, 3, 6, 12 h) after a single i.p. administration of 20 mg/kg. RB5 was then quantified in mouse brain using HPLC-MS/MS. Brain samples were homogenized with 1:4 w/v of 50% acetonitrile, 5% TFA in water with an homogenizer ultra-turrax and then centrifuged at 13000 rpm for 10 min at 4° C. The supernatant was collected and centrifuged at 13000 rpm for 2 minutes at 4° C. The supernatant was then collected in ice, extracted using Sep-Pak cartridges C18, lyophilised and kept at 4° C. before HPLC-MS/MS analysis. Immediately before the analysis samples were suspended in 100 μL of 0.1% HCOOH in water/8% acetonitrile in auto-sampler vials.
HPLC-MS/MS analysis was performed using a system consisting of an Agilent 1200 series HPLC system coupled with an Agilent 6410 Triple Quadruple mass spectrometer. Mass Hunter Workstation v. […] The quantification of mouse brain levels of RB5 and scramble peptides was carried out using an internal standard curve with peptide concentrations ranging from 0.1 to 4 ng per μl. […]
Peptides were then detected on an Agilent 6410 QQQ mass spectrometer using the following parameters: positive ion mode, 5 kV capillary voltage, cone voltage 500 V, gas flow rate 8 L/min at 350° C., nebulizer gas pressure 40 PSI at 350° C., well time 75 msec and Q1 and Q3 set to unit resolution.

[4] = tested on: zQ175 mice; experiment: Nose poke training (FR1) in 9-hole operant boxes, zQ175 model of Huntington's Disease; assay type: in vivo, mouse
Method: WT and zQ175 mice underwent daily 20 minutes nose poke training for 10 consecutive days (days 1-10) on a simple fixed ratio (FR1) schedule of reinforcement. Starting from day 11 mice received one administration of RB5 (20 mg/kg. i.p.) 1 h before the nose poke training. […] White star P<0.0001.
Operant testing was conducted in 16 9-hole operant boxes. Each operant box contains a horizontal array of nine holes with infrared beams localised to the front of each hole to detect nose pokes. A peristaltic pump delivers liquid reinforcement (strawberry milk) into a magazine at the front of the box.
A week before starting the training, mice undergo water restriction for 18 hours/day and are kept under this regimen throughout the experimental procedures. Mice are taught to nose poke on a simple fixed ratio (FR1) schedule of reinforcement: to obtain reward, mice are required to respond to a stimulus light in the central hole via a single nose poke. Mice are trained daily on this program during 20 minutes sessions for 10 days (training phase). Once trained, animals were subdivided in 4 groups and injected with RB5 or scramble (10 mg/kg, i.p.) peptides 1 hour before being tested on FR1 schedule for other 9 days.

In the case of `CSCC[C@H](NC(=O)[C@H](CCC(=O)O)NC(=O)[C@@H](NC(=O)[C@H](CCC(=O)O)NC(=O)CNC(=O)[C@@H]1CCCN1C(=O)[C@@H](NC(=O)CNC(=O)[C@@H]1CCCN1C(=O)CNC(=O)[C@@H](NC(=O)CNC(=O)[C@H](CCC(=O)O)NC(=O)[C@@H](NC(=O)[C@H](CCCNC(=N)N)NC(=O)[C@H](CCCNC(=N)N)NC(=O)[C@@H]1CCCN1C(=O)[C@H](CCC(=O)O)NC(=O)CNC(=O)CNC(=O)CNC(=O)CNC(=O)CNC(=O)[C@H](CCC(N)=O)NC(=O)[C@@H]1CCCN1C(=O)[C@@H]1CCCN1C(=O)[C@H](CCCNC(=N)N)NC(=O)[C@H](CCCNC(=N)N)NC(=O)[C@H](CCCNC(=N)N)NC(=O)[C@H](CCC(N)=O)NC(=O)[C@H](CCCNC(=N)N)NC(=O)[C@H](CCCNC(=N)N)NC(=O)[C@H](CCCCN)NC(=O)[C@H](CCCCN)NC(=O)[C@H](CCCNC(=N)N)NC(=O)CNC(C)=O)[C@@H](C)O)C(C)C)C(C)C)C(C)C)C(=O)N[C@H](C(=O)N[C@@H](CCCCN)C(=O)NCC(=O)N[C@@H](CCC(N)=O)C(=O)N1CCC[C@H]1C(=O)N[C@@H](Cc1ccccc1)C(=O)N[C@@H](CC(=O)O)C(=O)N[C@@H](C(=O)O)C(C)C)C(C)C` [RB5], the “pERK, pAcH3 (and pS6)” value ([1]; ERK1 KO mice, single administration) is reported as “did not alter; also recorded: did not reach the statistical significance”, the “pERK and pAcH3” value ([1]; ERK1 WT mice, single administration) is reported as “significant activation” and the “phosphorylation of S6” value ([1]; ERK1 WT vs ERK1 KO mice) is reported as “comparable in both genotypes”. For the same molecule, the “ERK activation (pERK) in hippocampal CA1 and Dentate Gyrus” value [2] was “increased pERK; also recorded: significant enhancement of ERK activation”, the “pre-apoptotic state (Cleaved Caspase-3 staining)” value [2] was “reduced the levels of cleaved caspase-3 staining; also recorded: significant reduction of the pre-apoptotic state” and the “time up to which high RB5 brain levels were detected” value [3] was “up to 6 h”. The “nose poke performances / responses” value ([4]; WT and zQ175 female mice, 9 days of RB5 treatment) was “significant enhancement of the responses; also recorded: improved performances” and the nose poke responding ([4]; zQ175 female mice, 20 mg/kg i.p. 1 h before training from day 11) was “significantly improved”.
